Data taken from PubChem BioAssay AID248 (DTP/NCI, 2004).
Several values for one entry are separate records, joined by “and”; a condition that tells them apart may be missing. Equal values may be shown once. Toxic doses and inconclusive results are not listed. Rule as the data show it: active = T/C of 150% or more; inactive = T/C below 125%.

System: L1210 leukemia ip in BDF1 mice, survival T/C
Experiment: NCI In Vivo Anticancer Drug Screen. Data for tumor model L1210 Leukemia (intraperitoneal) in B6D2F1 (BDF1) mice
Details: higher = longer survival
In short: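 Tumor cells were implanted, animals were treated, and survival was followed. The result divides the treated measurement by the vehicle-control measurement.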

[1] = endpoint: mean survival time, dose: 100.0 mg/kg/injection, schedule: Q01DX001 (ip), vehicle: saline
[2] = endpoint: mean survival time, dose: 200.0 mg/kg/injection, schedule: Q01DX001 (ip), vehicle: saline
[3] = endpoint: mean survival time, dose: 400.0 mg/kg/injection, schedule: Q01DX001 (ip), vehicle: saline
[4] = endpoint: mean survival time, dose: 50.0 mg/kg/injection, schedule: Q01DX009 (ip), vehicle: saline
[5] = endpoint: mean survival time, dose: 100.0 mg/kg/injection, schedule: Q01DX009 (ip), vehicle: saline
[6] = endpoint: mean survival time, dose: 75.0 mg/kg/injection, schedule: Q01DX001 (ip), vehicle: saline
[7] = endpoint: mean survival time, dose: 150.0 mg/kg/injection, schedule: Q01DX001 (ip), vehicle: saline

Measured: T/C

N#Cc1cc(Cl)c2c(c1Cl)Nc1c(Cl)ccc(Cl)c1S2
inactive: endpoint: mean survival time, dose: 50.0 mg/kg/injection, schedule: Q01DX001 (ip), vehicle: saline 96 % of control | [1] 96 % of control | [2] 96 % of control | [3] 102 % of control

Cc1c(Cl)cc(C(C)C)c(O)c1CN1CCOCC1
inactive: endpoint: mean survival time, dose: 222.0 mg/kg/injection, schedule: Q01DX Z (ip), vehicle: methylcellulose (MC) 96 % of control | endpoint: mean survival time, dose: 333.0 mg/kg/injection, schedule: Q01DX Z (ip), vehicle: methylcellulose (MC) 109 % of control | endpoint: mean survival time, dose: 500.0 mg/kg/injection, schedule: Q01DX Z (ip), vehicle: methylcellulose (MC) 102 % of control

O=C(NCCO)Nc1ccc(Cl)c(Cl)c1
inactive: endpoint: mean survival time, dose: 100.0 mg/kg/injection, schedule: Q01DX009 (ip), vehicle: Klucel (hydroxypropylcellulose) (HPC) 100 % of control | endpoint: mean survival time, dose: 200.0 mg/kg/injection, schedule: Q01DX009 (ip), vehicle: Klucel (hydroxypropylcellulose) (HPC) 103 % of control | endpoint: mean survival time, dose: 200.0 mg/kg/injection, schedule: Q04DX003 (ip), vehicle: Klucel (hydroxypropylcellulose) (HPC) 101 % of control | endpoint: mean survival time, dose: 400.0 mg/kg/injection, schedule: Q01DX009 (ip), vehicle: Klucel (hydroxypropylcellulose) (HPC) 101 % of control | endpoint: mean survival time, dose: 400.0 mg/kg/injection, schedule: Q04DX003 (ip), vehicle: Klucel (hydroxypropylcellulose) (HPC) 87 % of control

CSc1ncnc2nc[nH]c12
inactive: endpoint: mean survival time, dose: 1.5 mg/kg/injection, schedule: Q01DX Z (ip), vehicle: saline 95 % of control | endpoint: mean survival time, dose: 3.0 mg/kg/injection, schedule: Q01DX Z (ip), vehicle: saline 95 % of control | endpoint: mean survival time, dose: 6.0 mg/kg/injection, schedule: Q01DX Z (ip), vehicle: saline 103 % of control | endpoint: mean survival time, dose: 12.0 mg/kg/injection, schedule: Q01DX Z (ip), vehicle: saline 95 % of control | endpoint: mean survival time, dose: 12.5 mg/kg/injection, schedule: Q#A X Z (ip), vehicle: saline 108 % of control | endpoint: mean survival time, dose: 25.0 mg/kg/injection, schedule: Q01DX006 (iv), vehicle: saline 103 % of control | endpoint: mean survival time, dose: 25.0 mg/kg/injection, schedule: Q01DX009 (ip), vehicle: saline 97 % of control | endpoint: mean survival time, dose: 25.0 mg/kg/injection, schedule: Q01DX010 (ip), vehicle: saline 92 % of control | endpoint: mean survival time, dose: 25.0 mg/kg/injection, schedule: Q01DX Z (im), vehicle: methylcellulose (MC) 94 % of control | endpoint: mean survival time, dose: 25.0 mg/kg/injection, schedule: Q01DX Z (ip), vehicle: saline 101 % of control | endpoint: mean survival time, dose: 25.0 mg/kg/injection, schedule: Q01DX Z (sc), vehicle: methylcellulose (MC) 117 % of control | endpoint: mean survival time, dose: 25.0 mg/kg/injection, schedule: Q#A X Z (ip), vehicle: saline 103 % of control | endpoint: mean survival time, dose: 30.0 mg/kg/injection, schedule: Q01DX015 (ip), vehicle: carboxymethylcellulose (CMC) 114 % of control | endpoint: mean survival time, dose: 45.0 mg/kg/injection, schedule: Q01DX015 (ip), vehicle: carboxymethylcellulose (CMC) 104 % of control | endpoint: mean survival time, dose: 50.0 mg/kg/injection, schedule: Q01DX006 (iv), vehicle: saline 100 % of control | [4] 102 % of control and 104 % of control | endpoint: mean survival time, dose: 50.0 mg/kg/injection, schedule: Q01DX010 (ip), vehicle: saline 89 % of control | endpoint: mean survival time, dose: 50.0 mg/kg/injection, schedule: Q01DX Z (im), vehicle: methylcellulose (MC) 107 % of control | endpoint: mean survival time, dose: 50.0 mg/kg/injection, schedule: Q01DX Z (ip), vehicle: saline 105 % of control | endpoint: mean survival time, dose: 50.0 mg/kg/injection, schedule: Q01DX Z (sc), vehicle: methylcellulose (MC) 96 % of control | endpoint: mean survival time, dose: 50.0 mg/kg/injection, schedule: Q#A X Z (ip), vehicle: saline 112 % of control | endpoint: mean survival time, dose: 60.0 mg/kg/injection, schedule: Q01DX015 (ip), vehicle: carboxymethylcellulose (CMC) 114 % of control | endpoint: mean survival time, dose: 75.0 mg/kg/injection, schedule: Q01DX015 (ip), vehicle: carboxymethylcellulose (CMC) 108 % of control | endpoint: mean survival time, dose: 75.0 mg/kg/injection, schedule: Q03DX Z (ip), vehicle: saline 100 % of control | endpoint: mean survival time, dose: 90.0 mg/kg/injection, schedule: Q01DX015 (ip), vehicle: carboxymethylcellulose (CMC) 109 % of control | endpoint: mean survival time, dose: 100.0 mg/kg/injection, schedule: Q01DX006 (iv), vehicle: saline 108 % of control | [5] 102 % of control and 103 % of control | endpoint: mean survival time, dose: 100.0 mg/kg/injection, schedule: Q01DX010 (ip), vehicle: saline 95 % of control and 87 % of control | endpoint: mean survival time, dose: 100.0 mg/kg/injection, schedule: Q01DX Z (im), vehicle: methylcellulose (MC) 89 % of control | endpoint: mean survival time, dose: 100.0 mg/kg/injection, schedule: Q01DX Z (ip), vehicle: saline 111 % of control | endpoint: mean survival time, dose: 100.0 mg/kg/injection, schedule: Q01DX Z (sc), vehicle: methylcellulose (MC) 113 % of control | endpoint: mean survival time, dose: 120.0 mg/kg/injection, schedule: Q01DX001 (ip), vehicle: carboxymethylcellulose (CMC) 95 % of control and 100 % of control | endpoint: mean survival time, dose: 125.0 mg/kg/injection, schedule: Q01DX001 (ip), vehicle: methylcellulose (MC) 105 % of control and 108 % of control | endpoint: mean survival time, dose: 150.0 mg/kg/injection, schedule: Q03DX Z (ip), vehicle: saline 101 % of control | endpoint: mean survival time, dose: 180.0 mg/kg/injection, schedule: Q01DX001 (ip), vehicle: carboxymethylcellulose (CMC) 102 % of control and 106 % of control | endpoint: mean survival time, dose: 200.0 mg/kg/injection, schedule: Q01DX006 (iv), vehicle: saline 97 % of control | endpoint: mean survival time, dose: 200.0 mg/kg/injection, schedule: Q01DX009 (ip), vehicle: saline 97 % of control and 100 % of control | endpoint: mean survival time, dose: 200.0 mg/kg/injection, schedule: Q01DX010 (ip), vehicle: saline 105 % of control | endpoint: mean survival time, dose: 200.0 mg/kg/injection, schedule: Q01DX Z (im), vehicle: methylcellulose (MC) 102 % of control | endpoint: mean survival time, dose: 200.0 mg/kg/injection, schedule: Q01DX Z (ip), vehicle: saline 105 % of control | endpoint: mean survival time, dose: 200.0 mg/kg/injection, schedule: Q01DX Z (sc), vehicle: methylcellulose (MC) 112 % of control | endpoint: mean survival time, dose: 250.0 mg/kg/injection, schedule: Q01DX001 (ip), vehicle: methylcellulose (MC) 106 % of control and 108 % of control | endpoint: mean survival time, dose: 270.0 mg/kg/injection, schedule: Q01DX001 (ip), vehicle: carboxymethylcellulose (CMC) 103 % of control and 117 % of control | endpoint: mean survival time, dose: 300.0 mg/kg/injection, schedule: Q03DX Z (ip), vehicle: saline 100 % of control | endpoint: mean survival time, dose: 500.0 mg/kg/injection, schedule: Q01DX001 (ip), vehicle: methylcellulose (MC) 116 % of control | endpoint: mean survival time, dose: 1000.0 mg/kg/injection, schedule: Q01DX001 (ip), vehicle: methylcellulose (MC) 112 % of control | endpoint: median survival time, dose: 25.0 mg/kg/injection, schedule: Q01DX009 (ip), vehicle: saline 100 % of control | endpoint: median survival time, dose: 50.0 mg/kg/injection, schedule: Q01DX009 (ip), vehicle: saline 95 % of control and 106 % of control | endpoint: median survival time, dose: 100.0 mg/kg/injection, schedule: Q01DX009 (ip), vehicle: saline 100 % of control and 106 % of control | endpoint: median survival time, dose: 200.0 mg/kg/injection, schedule: Q01DX009 (ip), vehicle: saline 100 % of control and 115 % of control

Cc1nc2ncnc(NCc3ccc(Cl)cc3Cl)c2[nH]1
inactive: [1] 97 % of control | [2] 89 % of control | [3] 108 % of control

COc1ccc2c3c1OC1C(OS(=O)(=O)c4ccc(C)cc4)C=CC4C(C2)N(C)CCC341 (stereo not drawn)
inactive: endpoint: mean survival time, dose: 75.0 mg/kg/injection, schedule: Q01DX001 (ip), vehicle: carboxymethylcellulose (CMC) 100 % of control | [6] 101 % of control | endpoint: mean survival time, dose: 150.0 mg/kg/injection, schedule: Q01DX001 (ip), vehicle: carboxymethylcellulose (CMC) 97 % of control | [7] 103 % of control | endpoint: mean survival time, dose: 300.0 mg/kg/injection, schedule: Q01DX001 (ip), vehicle: carboxymethylcellulose (CMC) 95 % of control | endpoint: mean survival time, dose: 300.0 mg/kg/injection, schedule: Q01DX001 (ip), vehicle: saline 104 % of control

Brc1ccc2c(ccn2Cc2ccccc2)c1
inactive: endpoint: mean survival time, dose: 100.0 mg/kg/injection, schedule: Q04DX003 (sc), vehicle: olive oil, sesame oil, peanut oil 109 % of control | endpoint: mean survival time, dose: 200.0 mg/kg/injection, schedule: Q04DX003 (sc), vehicle: olive oil, sesame oil, peanut oil 106 % of control | endpoint: mean survival time, dose: 400.0 mg/kg/injection, schedule: Q04DX003 (sc), vehicle: olive oil, sesame oil, peanut oil 104 % of control

C=C(Cl)CSC(=S)N(C)C
inactive: [4] 98 % of control | [5] 98 % of control

NNCc1cc(Cl)c2cccnc2c1O
inactive: endpoint: mean survival time, dose: 100.0 mg/kg/injection, schedule: Q04DX002 (ip), vehicle: Klucel (hydroxypropylcellulose) (HPC) 105 % of control | endpoint: mean survival time, dose: 200.0 mg/kg/injection, schedule: Q04DX002 (ip), vehicle: Klucel (hydroxypropylcellulose) (HPC) 105 % of control | endpoint: mean survival time, dose: 400.0 mg/kg/injection, schedule: Q04DX002 (ip), vehicle: Klucel (hydroxypropylcellulose) (HPC) 99 % of control

COC(C)C1C([N+](C)(C)C)CS1(=O)=O (stereo not drawn)
inactive: [6] 97 % of control | [7] 94 % of control

COC(=O)C[CH2][Pb]([c]1ccccc1)([c]1ccccc1)[c]1ccccc1
inactive: endpoint: mean survival time, dose: 100.0 mg/kg/injection, schedule: Q04DX002 (ip), vehicle: saline with Tween-80 102 % of control | endpoint: mean survival time, dose: 200.0 mg/kg/injection, schedule: Q04DX002 (ip), vehicle: saline with Tween-80 113 % of control
